In patent US20100137313A1 (ASTRAZENECA AB, priority 2008, published 2010):

Target: S. pneumoniae Topoisomerase IV ATPase (ParE) (Streptococcus pneumoniae serotype 4, UniProt Q59961)
Test: S. pneumoniae Topoisomerase IV ATPase inhibition
Type: biochemical
Conditions: values marked * are an average of two or more data points, read-out: % Inh (13 μM) of S. pneumoniae Topoisomerase IV ATPase
Summary of the method: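 Malachite green/ammonium molybdate phosphate detection, A650. 1.25 nM ParE, 160 μM ATP, sheared salmon sperm DNA 5 μg/ml, 20 mM Tris pH 8.0, 8.0 mM MgCl2. Controls: 2% DMSO = 0%, 20 μM EDTA = 100% inhibition; IC50 over 10 concentrations.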

Chain of S. pneumoniae Topoisomerase IV ATPase (ParE) (Q59961 whole entry): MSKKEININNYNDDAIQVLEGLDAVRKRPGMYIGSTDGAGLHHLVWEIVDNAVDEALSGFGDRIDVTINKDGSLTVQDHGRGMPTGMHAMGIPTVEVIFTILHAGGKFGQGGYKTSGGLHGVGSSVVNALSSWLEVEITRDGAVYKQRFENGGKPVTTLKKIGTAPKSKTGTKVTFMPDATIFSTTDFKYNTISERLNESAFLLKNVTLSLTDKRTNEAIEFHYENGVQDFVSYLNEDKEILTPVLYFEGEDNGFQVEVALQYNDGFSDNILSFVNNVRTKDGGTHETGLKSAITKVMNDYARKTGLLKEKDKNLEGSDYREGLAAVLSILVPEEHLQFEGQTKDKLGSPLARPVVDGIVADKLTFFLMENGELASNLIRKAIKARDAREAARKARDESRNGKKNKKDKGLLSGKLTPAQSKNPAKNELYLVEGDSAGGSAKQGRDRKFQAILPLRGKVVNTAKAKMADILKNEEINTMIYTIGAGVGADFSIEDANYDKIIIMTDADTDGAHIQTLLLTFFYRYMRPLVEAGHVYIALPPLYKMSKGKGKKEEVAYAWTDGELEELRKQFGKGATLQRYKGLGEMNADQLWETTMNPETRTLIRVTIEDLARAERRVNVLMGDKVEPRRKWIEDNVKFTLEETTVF

## COc1cc(Nc2ncc(-c3cnc(SC)c(C(=O)NS(C)(=O)=O)c3)c(-n3nc(C(F)(F)F)cc3C)n2)cc(OC)c1 [Example 855, 5-{2-[(3,5-dimethoxyphenyl)amino]-4-[5-methyl-3-(trifluoromethyl)-1H-pyrazol-1-yl]pyrimidin-5-yl}-2-(methylsulfanyl)-N-(methylsulfonyl)pyridine-3-carboxamide]
  inhibition at 13 µM: 94%

## COc1ncc(-c2cnc(Nc3cc(C)cc(C)c3)nc2-n2ccc(C(F)(F)F)n2)cc1C(=O)NS(C)(=O)=O [Example 898, 5-(2-(3,5-dimethylphenylamino)-4-(3-(trifluoromethyl)-1H-pyrazol-1-yl)pyrimidin-5-yl)-2-methoxy-N-(methylsulfonyl)nicotinamide]
  inhibition at 13 µM: 100%

## COc1cc(Nc2ncc(-c3ccc(C(=O)O)s3)c(NCCCN(C)C)n2)cc(OC)c1 [Example 345, 5-(2-(3,5-dimethoxy-phenylamino)-4-(3-(dimethylamino)propyamino)pyrimidin-5-yl) thiophene-2-carboxylic acid]
  inhibition at 13 µM: 82.7%

## COCCCNc1nc(Nc2ccc(F)c(Cl)c2)ncc1-c1ccc2cc(C(=O)OC)[nH]c2c1 [Example 1051, methyl 6-(2-(3-chloro-4-fluorophenylamino)-4-(3-methoxypropylamino)pyrimidin-5-yl)-1H-indole-2-carboxylate]
  inhibition at 13 µM: 0%

## COc1cc(Nc2ncc(-c3cncnc3)c(NCCc3ccncc3)n2)cc(OC)c1 [Example 354, N^2-(3,5-dimethoxyphenyl)-N^4-(2-(pyridin-4-yl)ethyl)-5,5′-bipyrimidine-2,4-diamine]
  inhibition at 13 µM: 80.5%

## CN1CCN(c2nc(Nc3ccc(F)c(Cl)c3)ncc2-c2cccc(/C=C/C(=O)O)c2)CC1 [Example 301, (E)-3-(3-(2-(3-chloro-4-fluorophenylamino)-4-(4-methylpierazin-1-yl)pyrimidin-5-yl)phenyl)acrylic acid]
  inhibition at 13 µM: 72.2%

## CNC(=O)c1cc(-c2cnc(Nc3cc(OC)cc(OC)c3)nc2-n2nc(C(F)(F)F)cc2C)cnc1OC [Example 808, 5-{2-[(3,5-dimethoxyphenyl)amino]-4-[5-methyl-3-(trifluoromethyl)-1H-pyrazol-1-yl]pyrimidin-5-yl}-2-methoxy-N-methylpyridine-3-carboxamide]
  inhibition at 13 µM: 100%

## COCCn1cc(-c2cnc(Nc3cc(OC)cc(OC)c3)nc2-n2ccc(C(F)(F)F)n2)cc(C(=O)O)c1=O [Example 1159]
  inhibition at 13 µM: 100%

## CN(C)CCCNc1nc(Nc2ccc(F)c(Cl)c2)ncc1-c1ccc(C(=O)N(C)C)s1 [Example 366, 5-(2-(3-chloro-4-fluorophenylamino)-4-(3-(dimethylamino)propylamino)pyrimidin-5-yl)-N,N-dimethylthiophene-2-carboxamide]
  inhibition at 13 µM: 80.5%

## CCOC(=O)c1cncc(-c2cnc(Nc3ccc(F)c(Cl)c3)nc2N2CCCC2)c1 [Example 147, ethyl 5-(2-(3-chloro-4-fluorophenylamino)-4-(pyrrolidin-1-yl)pyrimidin-5-yl)nicotinate]
  inhibition at 13 µM: 65.4%

## O=C(O)/C=C/c1cccc(-c2cnc(Nc3ccc(F)c(Cl)c3)nc2NCCn2cccn2)c1 [Example 267, (2E)-3-[3-(2-[(3-chloro-4-fluorophenyl)amino]-4-{[2-(1H-pyrazol-1-yl)ethyl]amino}pyrimidin-5-yl)phenyl]prop-2-enoic acid]
  inhibition at 13 µM: 87.3%

## NC(=O)c1cncc(-c2cnc(Nc3ccc(F)c(Cl)c3)nc2-n2cc(-c3ccccn3)cn2)c1 [Example 542]
  inhibition at 13 µM: 85%

## CN(C)CCCNc1nc(Nc2ccc(F)c(Cl)c2)ncc1-c1ccc2sc(C(=O)O)cc2c1 [Example 217, 5-(2-(3-chloro-4-fluorophenylamino)-4-(3-(dimethylamino)propylamino)pyrimidin-5-yl)benzo[b] thiophene-2-carboxylic acid]
  inhibition at 13 µM: 82.4%

## COc1cc(Nc2ncc(-c3cnc(OC)c(C(=O)NS(=O)(=O)CCCN4CCOCC4)c3)c(-n3ccc(C(F)(F)F)n3)n2)cc(OC)c1 [Example 820, 5-{2-[(3,5-dimethoxyphenyl)amino]-4-[3-(trifluoromethyl)-1H-pyrazol-1-yl]pyrimidin-5-yl}-2-methoxy-N-{[3-(morpholin-4-yl)propyl]sulfonyl}pyridine-3-carboxamide]
  inhibition at 13 µM: 100%

## COc1ccc(-c2cnc(Nc3ccc(F)c(Cl)c3)nc2NCCCN(C)C)cn1 [Example 18, N^2-(3-chloro-4-fluorophenyl)-N^4-[3-(dimethylamino)propyl]-5-(6-methoxy-pyridin-3-yl)pyrimidin-2,4-diamine]
  inhibition at 13 µM: 96.6%

## COCCCNc1nc(Nc2ccc(F)c(Cl)c2)ncc1-c1ccc2c(c1)c(=O)c(C(=O)O)cn2CCOC [Example 304, 6-(2-(3-chloro-4-fluorophenylamino)-4-(3-methoxypropylamino)-pyrimidin-5-yl)-1-(2-methoxyethyl)-4-oxo-1,4-dihydroquinoline-3-carboxylic acid]
  inhibition at 13 µM: 55.8%

## COCCn1cc(-c2cnc(Nc3cc(OC)cc(OC)c3)nc2-n2nc(C(F)(F)F)cc2C)cc(C(=O)O)c1=O [Example 1160, 5-(2-(3,5-dimethoxyphenylamino)-4-(5-methyl-3-(trifluoromethyl)-1H-pyrazol-1-yl)pyrimidin-5-yl)-1-(2-methoxyethyl)-2-oxo-1,2-dihydropyridine-3-carboxylic acid]
  inhibition at 13 µM: 100%

## COc1cc(CNc2nc(Nc3ccc(F)c(Cl)c3)ncc2-c2cnc(OC)nc2)cc(OC)c1 [Example 464, N2-(3-chloro-4-fluorophenyl)-N4-(3,5-dimethoxybenzyl)-2′-methoxy-5,5′-bipyrimidin-2,4-diamine]
  inhibition at 13 µM: 36%

## COc1cc(C#N)cc(Nc2ncc(-c3cncc(C(=O)O)c3)c(-n3ccc(C(F)(F)F)n3)n2)c1 [Example 732, 5-{2-[(3-cyano-5-methoxyphenyl)amino]-4-[3-(trifluoromethyl)-1H-pyrazol-1-yl]pyrimidin-5-yl}pyridine-3-carboxylic acid]
  inhibition at 13 µM: 100%

## O=C(O)CNc1nc(Nc2ccc(F)c(Cl)c2)ncc1-c1cncc(C(=O)O)c1 [Example 238, 5-[4-(carboxymethylamino)-2-[(3-chloro-4-fluorophenyl)amino]-pyrimidin-5-yl]pyridine-3-carboxylic acid]
  inhibition at 13 µM: 72.6%

## COc1cc(Nc2ncc(-c3cccc(/C=C/C(=O)O)c3)c(NCCc3ccncc3)n2)cc(C(F)(F)F)c1 [Example 355, (E)-3-(3-(2-(3-methoxy-5-(trifluoromethyl)phenylamino)-4-(2-(pyridin-4-yl)ethylamino)pyrimidin-5-yl)phenyl) acrylic acid]
  inhibition at 13 µM: 86.6%

## CCOC(=O)/C=C/c1cccc(-c2cnc(Nc3ccc(F)c(Cl)c3)nc2N2CC(C)OC(C)C2)c1 (stereo not shown) [Example 163, (E)-ethyl 3-(3-(2-(3-chloro-4-fluorophenylamino)-4-(2,6-dimethylmorpholino)pyrimidin-5-yl)phenyl)acrylate]
  inhibition at 13 µM: 55%

## Cc1cc(C(F)(F)F)nn1-c1nc(Nc2cccc(Cl)c2)ncc1-c1cncc(C(=O)O)c1 [Example 744, 5-{2-[(3-chlorophenyl)amino]-4-[5-methyl-3-(trifluoromethyl)-1H-pyrazol-1-yl]pyrimidin-5-yl}pyridine-3-carboxylic acid]
  inhibition at 13 µM: 100%

## Cc1cc(C(F)(F)F)nn1-c1nc(Nc2ccc(F)c(Cl)c2)ncc1-c1ccc2c(c1)C(=O)NC2=O [Example 1042, 5-(2-(3-Chloro-4-fluorophenylamino)-4-(5-methyl-3-(trifluoromethyl)-1H-pyrazol-1-yl)pyrimidin-5-yl)isoindoline-1,3-dione]
  inhibition at 13 µM: 49%

## CCC1COC(C)CN1c1nc(Nc2ccc(F)c(Cl)c2)ncc1-c1cccc(/C=C/C(=O)O)c1 (stereo not shown) [Example 1056, (E)-3-(3-(2-(3-chloro-4-fluorophenylamino)-4-(5-ethyl-2-methylmorpholino)pyrimidin-5-yl)phenyl)acrylic acid]
  inhibition at 13 µM: 85%

## COc1ncc(-c2cnc(Nc3ccc(F)c(Cl)c3)nc2NCc2cnn(C)c2C)cn1 [Example 469, N2-(3-chloro-4-fluorophenyl)-N4-((1,5-dimethyl-1H-pyrazol-4-yl)methyl)-2′-methoxy-5,5′-bipyrimidine-2,4-diamine]
  inhibition at 13 µM: 64%

## Fc1ccc(Nc2ncc(-c3cncnc3)c(NCc3ccncc3)n2)cc1Cl [Example 40, N^2-(3-chloro-4-fluorophenyl)-N^4-(pyridin-4-ylmethyl)-5-pyrimidin-5-ylpyrimidine-2,4-diamine]
  inhibition at 13 µM: 72.4%

## COc1cc(Nc2ncc(-c3cnc(OC)c(C(=O)NS(=O)(=O)C(C)C)c3)c(-n3ccc(C(F)(F)F)n3)n2)cc(OC)c1 [Example 818, 5-{2-[(3,5-dimethoxyphenyl)amino]-4-[3-(trifluoromethyl)-1H-pyrazol-1-yl]pyrimidin-5-yl}-2-methoxy-N-(propan-2-ylsulfonyl)pyridine-3-carboxamide]
  inhibition at 13 µM: 100%

## COc1cc(Nc2ncc(-c3cccc(/C=C/C(=O)O)c3)c(-n3nc(C(F)(F)F)cc3C)n2)cc(C(F)(F)F)c1 [Example 880, (E)-3-(3-(2-(3-methoxy-5-(trifluoromethyl)phenylamino)-4-(5-methyl-3-(trifluoromethyl)-1H-pyrazol-1-yl)pyrimidin-5-yl)phenyl)acrylic acid]
  inhibition at 13 µM: 91%

## O[C@H]1CC[C@H](Nc2nc(Nc3ccc(F)c(Cl)c3)ncc2-c2cncnc2)CC1 [Example 68, trans-4-[[2-[(3-chloro-4-fluorophenyl)amino]-5-pyrimidin-5-ylpyrimidin-4-yl]amino]cyclohexan-1-ol]
  inhibition at 13 µM: 72.9%

## COc1cc(Nc2ncc(-c3ccc(C(=O)O)s3)c(NCCCN(C)C)n2)cc(C(F)(F)F)c1 [Example 346, 5-{4-[3-(dimethylamino)propylamino]-2-[3-methoxy-5-(trifluoromethyl)phenylamino]pyrimidin-5-yl}thiophene-2-carboxylic acid]
  inhibition at 13 µM: 79.5%
